The text below walks through data of US20260317319A1, “NOVEL ERGOLINES AND METHODS OF TREATING MOOD DISORDERS” (Gilgamesh Pharma Inc., priority 2023, published 2026).

A word on the Ki: it is a dissociation constant, usually derived from enzyme kinetics or from competition with a known ligand. By EC50 is commonly meant the concentration giving half of the maximal effect.

The target in one experiment is T1, 5-HT2B receptor (Homo sapiens, UniProt P41595).
T1 construct: expressed in transfected cells; host or cells: HEK293, stably transfected
Put plainly: 5-HT2B receptor radioligand binding ([3H]LSD). The settings on record: read-out: 5-HT2B Receptor Ki.

Experiment [1] has as its target T2, 5-HT2C receptor (Homo sapiens, UniProt P28335).
T2 sequence (P28335 33-458): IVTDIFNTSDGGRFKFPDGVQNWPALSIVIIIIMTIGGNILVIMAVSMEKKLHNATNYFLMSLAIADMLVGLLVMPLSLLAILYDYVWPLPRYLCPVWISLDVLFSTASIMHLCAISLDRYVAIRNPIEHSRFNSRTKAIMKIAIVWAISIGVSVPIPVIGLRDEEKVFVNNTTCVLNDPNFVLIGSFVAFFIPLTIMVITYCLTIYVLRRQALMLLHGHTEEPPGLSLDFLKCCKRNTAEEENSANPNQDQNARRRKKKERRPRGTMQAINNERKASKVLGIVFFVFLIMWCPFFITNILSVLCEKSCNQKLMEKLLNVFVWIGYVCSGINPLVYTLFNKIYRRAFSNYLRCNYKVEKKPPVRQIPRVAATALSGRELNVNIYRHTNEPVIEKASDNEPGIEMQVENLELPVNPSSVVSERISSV
The experiment can be described thus: cell-based. The settings on record: agonist, Ca2+ flux, Eurofins DiscoverX protocol; for Emax: max dose, read-out: 5-HT2C % Act @ Max Dose; for EC50: read-out: 5-HT2C EC50. For orientation: Calcium flux is commonly read through the fluorescence of an indicator in the cells.

The test system of experiment [2] is C57BL/6 mice. Put plainly: Automated mouse head twitch response (HTR) assay (video tracking). It is filed as in vivo. To be noted: sc; for # HTR/20 min at Most Efficacious Dose: 20 min recording, at each compound's most efficacious dose (35*, 43*, 44*: suppressed below vehicle 14.5, dose is that of least suppression); for # HTR/20 min at Most Efficacious Dose / Peak HTR/min at Most Efficacious Dose: mean; for Most Efficacious Dose for Peak HTR/min: dose giving highest peak HTR/min (35*, 43*, 44*: dose that resulted in the least suppression); for Most Efficacious Dose for # HTR/20 min: dose giving most HTR/20 min (35*, 43*, 44*: dose that resulted in the least suppression); for Peak HTR/min at Most Efficacious Dose: rate over 2-min bins, at each compound's most efficacious dose (35*, 43*, 44*: suppressed below vehicle 1.62, dose is that of least suppression). A digest of the protocol: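 Adult male C57BL/6 mice (8-10 weeks, 18-25 g) received a single drug dose and were video-recorded in a small open field for 20 min immediately after dosing. HTR events were detected automatically from periodic ear-position deviations above preset thresholds. Values are total HTR counts over 20 min and HTR/min in 2-min bins, mean±SEM.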

The target of experiment [3] is T2, 5-HT2C receptor. The experiment can be described thus: Ca2+ flux functional assay at 5-HT2C (WuXi 5-HT2C protocol). To be noted: for Emax: agonist, tested using WuXi 5-HT2C protocol, max dose, read-out: 5-HT2C % Act @ Max Dose (* WuXi protocol). The arrangement: expressed in transfected cells. Type of experiment: cell-based. A digest of the protocol: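 Agonist mode FLIPR Ca2+ flux in stably transfected cells loaded with Fluo-4 Direct dye and 2.5 mM probenecid (final), 50 min at 37 °C. Compounds tested as 10-point 1:3.16 dilutions; fluorescence read after addition.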

Experiment [4] deals with C57BL/6 mice. Put plainly: Mouse head twitch response (HTR) assay (observer-counted). Type of experiment: in vivo.

Structures are written as SMILES. A value given as a limit tells only on which side of the number the result lay.

T1 sequence (P41595 whole entry): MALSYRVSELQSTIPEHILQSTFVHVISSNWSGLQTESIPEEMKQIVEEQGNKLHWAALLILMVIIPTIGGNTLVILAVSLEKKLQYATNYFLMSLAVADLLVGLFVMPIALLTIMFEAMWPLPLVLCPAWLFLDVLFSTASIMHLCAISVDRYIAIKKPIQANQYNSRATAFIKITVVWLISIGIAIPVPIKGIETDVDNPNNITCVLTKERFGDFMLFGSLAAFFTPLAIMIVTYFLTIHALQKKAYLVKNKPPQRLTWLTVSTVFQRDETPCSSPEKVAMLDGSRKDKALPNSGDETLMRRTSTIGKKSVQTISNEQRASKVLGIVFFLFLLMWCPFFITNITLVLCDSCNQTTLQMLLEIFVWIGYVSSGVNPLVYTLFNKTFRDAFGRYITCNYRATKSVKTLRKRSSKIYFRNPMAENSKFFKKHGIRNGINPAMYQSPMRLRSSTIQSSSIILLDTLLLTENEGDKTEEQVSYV

On to `CCN(CC)C(=O)[C@@H]1C=C2c3cccc4[nH]cc(c34)C[C@H]2N(Cc2ccc(OC)cc2)C1` [Compound 19, (6aR,9R)—N,N-diethyl-7-(4-methoxybenzyl)-4,6,6a,7,8,9-hexahydroindolo[4,3-fg]quinoline-9-carboxamide], for which the Ki at 5-HT2B receptor turned out to be 225 nM. At 5-HT2C receptor [1], the Emax turned out to be 1.7% and the EC50 is more than 10 µM. Moreover, in the experiment with C57BL/6 mice [2], the “# HTR/20 min at Most Efficacious Dose” value stood at 9.50 HTR/20 min; the “Most Efficacious Dose for Peak HTR/min” value is “(1) mg/kg, sc”; the “Most Efficacious Dose for # HTR/20 min” value is “(10) mg/kg, sc”; the “Peak HTR/min at Most Efficacious Dose” value was 1.31 HTR/min.
For `CCN(C)C(=O)[C@@H]1C=C2c3cccc4[nH]cc(c34)C[C@H]2N(Cc2ccccc2)C1` [Compound 85, (6aR,9R)-7-benzyl-N-ethyl-N-methyl-4,6,6a,7,8,9-hexahydroindolo[4,3-fg]quinoline-9-carboxamide], the Ki on 5-HT2B receptor was determined as 32.4 nM. For the same compound, in the experiment with C57BL/6 mice [2], the “# HTR/20 min at Most Efficacious Dose” value is recorded as 6.625 HTR/20 min; the “Most Efficacious Dose for Peak HTR/min” value is reported as “(0.32) mg/kg, sc”; the “Most Efficacious Dose for # HTR/20 min” value is reported as “(0.32) mg/kg, sc”; the “Peak HTR/min at Most Efficacious Dose” value was determined as 0.33 HTR/min. Also, on 5-HT2C receptor [3], the EC50 is more than 10 µM and the Emax was determined as 16.3%.
Consider `CCN(CC)C(=O)[C@@H]1C=C2c3cccc4[nH]cc(c34)C[C@H]2N(Cc2ccc(Cl)cc2)C1` [Compound 50, (6aR,9R)-7-(4-chlorobenzyl)-N,N-diethyl-4,6,6a,7,8,9-hexahydroindolo[4,3-fg]quinoline-9-carboxamide], for which the inhibition constant (Ki) on 5-HT2B receptor stood at 53.7 nM. Further, on 5-HT2C receptor [3], the EC50 is more than 10 µM and the Emax stood at 1.08%.
In the same order, the values of `CCN(CC)C(=O)[C@@H]1C=C2c3cccc4[nH]cc(c34)C[C@H]2N(Cc2ccc(F)cc2)C1` [Compound 49, (6aR,9R)—N,N-diethyl-7-(4-fluorobenzyl)-4,6,6a,7,8,9-hexahydroindolo[4,3-fg]quinoline-9-carboxamide] are 16.9 nM, more than 10 µM and 1.32%.
With `CCCN1C[C@H](C(=O)N(CC)CC)C=C2c3cccc4[nH]cc(c34)C[C@H]21` [Compound 1, (6aR,9R)—N,N-diethyl-7-propyl-4,6,6a,7,8,9-hexahydroindolo[4,3-fg]quinoline-9-carboxamide], the Emax on 5-HT2C receptor [1] worked out at 107%. Also, the “head twitch response” value in the experiment with C57BL/6 mice [4] (20 min observation, FIG. 1) is “robust and dose-dependent HTR”. Moreover, in the experiment on C57BL/6 mice [4] (SC, 20 min, most efficacious dose), the “HTR at most efficacious dose (bound)” value is given as more than 15 HTR. In the experiment with C57BL/6 mice [2], the “# HTR/20 min at Most Efficacious Dose” value is given as 20.625 HTR/20 min; the “Most Efficacious Dose for Peak HTR/min” value is recorded as “(0.32) mg/kg, sc”; the “Most Efficacious Dose for # HTR/20 min” value is given as “(0.32) mg/kg, sc”; the “Peak HTR/min at Most Efficacious Dose” value came to 2.19 HTR/min.
In the case of `CCN(CC)C(=O)[C@@H]1C=C2c3cccc4[nH]cc(c34)C[C@H]2N(Cc2cccc(OC)c2)C1` [Compound 18, (6aR,9R)—N,N-diethyl-7-(3-methoxybenzyl)-4,6,6a,7,8,9-hexahydroindolo[4,3-fg]quinoline-9-carboxamide], on 5-HT2B receptor, the Ki was 188 nM. At 5-HT2C receptor [1], the Emax came out at 7.28% and the EC50 was more than 10 µM. Besides, in the experiment on C57BL/6 mice [2], the “# HTR/20 min at Most Efficacious Dose” value came to 7.62 HTR/20 min; the “Most Efficacious Dose for Peak HTR/min” value is “(0.1) mg/kg, sc”; the “Most Efficacious Dose for # HTR/20 min” value is recorded as “(3.2) mg/kg, sc”; the “Peak HTR/min at Most Efficacious Dose” value came to 1.12 HTR/min.
